Data reported in US9079866B2, “Flap modulators” (JANSSEN PHARMACEUTICA NV, priority 2013, dated 2015).

What was measured:
[1] = target: human FLAP (Homo sapiens (Human), UniProt P20292); assay: FLAP binding assay (HTRF format); conditions: human FLAP wild type, HTRF format; average of two plates, duplicates
How it was run: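 HTRF ratio read-out; two independent plates, samples in duplicate on each, values averaged across plates.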

[2] = test system: leukotriene pathway in human whole blood (LTB4 levels); assay: Human whole blood assay (A23187-stimulated LTB4); assay type: cell-based; conditions: Homo sapiens, human whole blood diluted 1:1 in RPMI, A23187-stimulated LTB4; read-out: LTB4 IC50 1:1
How it was run: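 Single-replicate data from at least one healthy donor: compound pre-incubated 15 min at 37° Celsius in 1:1 RPMI-diluted heparinised blood, followed by 30 min calcium ionophore A23187 (7 μg/mL) challenge at 37° Celsius. LTB4 in plasma quantified by kit; IC50 via 4-parameter equation.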

human FLAP, sequence (P20292 whole entry): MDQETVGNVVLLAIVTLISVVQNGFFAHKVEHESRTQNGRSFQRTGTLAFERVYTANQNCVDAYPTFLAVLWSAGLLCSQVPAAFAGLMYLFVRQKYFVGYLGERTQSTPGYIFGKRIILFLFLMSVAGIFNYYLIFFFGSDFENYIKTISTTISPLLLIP

SMILES	Ki [1]	IC50 [2]
CC[C@H](CO)NS(=O)(=O)c1ccccc1-c1ccc(-c2cnc(N)cn2)c(F)c1 [Example 86, 4′-(5-Aminopyrazin-2-yl)-3′-fluoro-N-[(1R)-1-(hydroxymethyl)propyl]biphenyl-2-sulfonamide]	3 nM	27 nM
Nc1cnc(-c2ccc(-c3ccccc3S(=O)(=O)N[C@@H]3CCCC[C@@H]3O)cc2F)cn1 [Example 87, 4′-(5-Aminopyrazin-2-yl)-3′-fluoro-N-[(1R,2S)-2-hydroxycyclohexyl]biphenyl-2-sulfonamide]	3 nM	75 nM
Nc1cnc(-c2ccc(-c3ccccc3S(=O)(=O)NCCO)cc2F)cn1 [Example 88, 4′-(5-Aminopyrazin-2-yl)-3′-fluoro-N-(2-hydroxyethyl)biphenyl-2-sulfonamide]	7 nM	36 nM
Nc1cnc(-c2ccc(-c3ccccc3S(=O)(=O)NC3CC3)cc2F)cn1 [Example 89, 4′-(5-Aminopyrazin-2-yl)-N-cyclopropyl-3′-fluorobiphenyl-2-sulfonamide]	6 nM	43 nM
Nc1cnc(-c2ccc(-c3ccccc3S(=O)(=O)NCC3CC3)cc2F)cn1 [Example 90, 4′-(5-Aminopyrazin-2-yl)-N-(cyclopropylmethyl)-3′-fluorobiphenyl-2-sulfonamide]	1 nM	12 nM
Nc1cnc(-c2ccc(-c3ccccc3S(=O)(=O)N3CCC[C@@H]3CO)cc2F)cn1 [Example 91, (R)-(1-((4′-(5-Aminopyrazin-2-yl)-3′-fluoro-[1,1′-biphenyl]-2-yl)sulfonyl)pyrrolidin-2-yl)methanol]	5 nM	28 nM
Nc1cnc(-c2ccc(-c3ccccc3S(=O)(=O)N3CCC[C@H]3CO)cc2F)cn1 [Example 95, (S)-(1-((4′-(5-Aminopyrazin-2-yl)-3′-fluoro-[1,1′-biphenyl]-2-yl)sulfonyl)pyrrolidin-2-yl)methanol]	10 nM	53 nM
C[C@@H](O)CNS(=O)(=O)c1ccccc1-c1ccc(-c2cnc(N)cn2)c(F)c1 [Example 97, (R)-4′-(5-aminopyrazin-2-yl)-3′-fluoro-N-(2-hydroxypropyl)-[1,1′-biphenyl]-2-sulfonamide]	8 nM	42 nM
C[C@H](O)CNS(=O)(=O)c1ccccc1-c1ccc(-c2cnc(N)cn2)c(F)c1 [Example 98, (S)-4′-(5-aminopyrazin-2-yl)-3′-fluoro-N-(2-hydroxypropyl)-[1,1′-biphenyl]-2-sulfonamide]	8 nM	39 nM
Nc1cnc(-c2ccc(-c3ccccc3S(=O)(=O)NCC3(O)CCCCC3)cc2F)cn1 [Example 99, 4′-(5-Aminopyrazin-2-yl)-3′-fluoro-N-[(1-hydroxycyclohexyl)methyl]biphenyl-2-sulfonamide]	2 nM	30 nM
CC(C)(CO)NS(=O)(=O)c1ccccc1-c1ccc(-c2cnc(N)cn2)c(F)c1 [Example 100, 4′-(5-Aminopyrazin-2-yl)-3′-fluoro-N-(2-hydroxy-1,1-dimethylethyl)biphenyl-2-sulfonamide]	1 nM	24 nM
CC(C)(O)CNS(=O)(=O)c1ccccc1-c1ccc(-c2cnc(N)cn2)c(F)c1 [Example 101, 4′-(5-Aminopyrazin-2-yl)-3′-fluoro-N-(2-hydroxy-2-methylpropyl)biphenyl-2-sulfonamide]	2 nM	14 nM
Nc1cnc(-c2ccc(-c3ccccc3S(=O)(=O)NC[C@H](O)CO)cc2F)cn1 [Example 104, (S)-4′-(5-Aminopyrazin-2-yl)-N-(2,3-dihydroxypropyl)-3′-fluoro-[1,1′-biphenyl]-2-sulfonamide]	12 nM	> 1000 nM
Nc1cnc(-c2ccc(-c3ccccc3S(=O)(=O)NC[C@@H](O)CO)cc2F)cn1 [Example 105, (R)-4′-(5-Aminopyrazin-2-yl)-N-(2,3-dihydroxypropyl)-3′-fluoro-[1,1′-biphenyl]-2-sulfonamide]	25 nM	481 nM
